The source made the active and inactive calls.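 How the source made its calls: active means every test run fits a half-maximal inhibitory dose no higher than twice its top dose tested; inconclusive means runs disagree, flat partial inhibition, or poor curve fit; inactive means the rest.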
The molecules below were run against Cyclin-dependent kinase 5 activator 1 (Homo sapiens) + Cyclin-dependent kinase 5 (Homo sapiens) (UniProt Q15078+Q00535) (assay: inhibition of CDK5-p35 phosphorylation activity – biochemical, ADP-Glo luminescence, dry powder samples, dose response (AID 602284)). Details: histone H1 peptide.
Sequence of Cyclin-dependent kinase 5 activator 1 (Homo sapiens) + Cyclin-dependent kinase 5 (Homo sapiens) (Q00535 whole entry, looked up): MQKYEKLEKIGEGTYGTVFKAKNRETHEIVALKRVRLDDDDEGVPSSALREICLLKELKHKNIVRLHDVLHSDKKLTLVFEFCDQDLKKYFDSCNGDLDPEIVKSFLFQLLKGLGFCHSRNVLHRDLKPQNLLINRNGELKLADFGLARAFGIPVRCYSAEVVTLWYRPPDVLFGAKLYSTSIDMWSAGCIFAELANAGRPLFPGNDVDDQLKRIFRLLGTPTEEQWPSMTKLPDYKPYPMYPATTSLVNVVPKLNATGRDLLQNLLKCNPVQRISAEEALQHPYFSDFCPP
Sequence of Cyclin-dependent kinase 5 activator 1 (Homo sapiens) + Cyclin-dependent kinase 5 (Homo sapiens) (Q15078 whole entry, looked up): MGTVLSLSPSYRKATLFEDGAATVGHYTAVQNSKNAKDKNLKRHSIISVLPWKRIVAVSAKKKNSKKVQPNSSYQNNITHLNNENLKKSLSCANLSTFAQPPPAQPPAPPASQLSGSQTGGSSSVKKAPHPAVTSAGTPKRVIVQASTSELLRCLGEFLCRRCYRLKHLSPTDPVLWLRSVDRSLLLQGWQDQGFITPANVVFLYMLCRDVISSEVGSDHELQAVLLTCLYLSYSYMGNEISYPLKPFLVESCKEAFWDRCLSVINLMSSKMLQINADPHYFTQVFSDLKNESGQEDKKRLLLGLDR
With `CCn1c(NC(=O)c2cccc(S(=O)(=O)NC)c2)nc2ccccc21` the AC50 was 29.1 µM. `CCCn1c(NC(=O)c2cccc(S(=O)(=O)N(CC)CC)c2)nc2ccccc21` gave an AC50 of 2.95 µM. Work on `CC(C)(C)n1c(NC(=O)c2cccc(S(C)(=O)=O)c2)nc2ccccc21` yielded an AC50 of 12.3 µM. Molecule `CCCn1c(NC(=O)c2cccc(S(=O)(=O)N3CCCCC3)c2)nc2ccccc21` has an AC50 of 13.5 µM. `CCCn1c(NC(=O)c2cccc(S(=O)(=O)N(C)C)c2)nc2ccccc21` was tested, and the AC50 was 10.2 µM.

Same assay, conditions: histone H1 peptide, at 0.38 µM (top of the series)
`c1ccc(N2CCNCC2)nc1` was tested, and the “activity change, negative = inhibition” value was “inactive”.

Same assay, conditions: histone H1 peptide, at 10 µM (top of the series)
`O=C(c1ccccc1)N1CCN(c2ccccn2)CC1` was tested, and the “activity change, negative = inhibition” value was “inactive”.

Same assay, conditions: histone H1 peptide, at 30 µM (top of the series)
For `N#Cc1cccnc1N1CCN(C(=O)c2ccc(Cl)cc2)CC1`, the “activity change, negative = inhibition” value was “inactive”. `O=C(C1CCCCC1)N1CCN(c2ccccn2)CC1` was tested, and the “activity change, negative = inhibition” value was “inactive”. `Cc1ccnc(N2CCN(C(=O)c3ccc(Cl)cc3)CC2)c1` was tested, and the “activity change, negative = inhibition” value was “inactive”. `Cc1cccc(N2CCN(C(=O)c3ccc(Cl)cc3)CC2)n1` was tested, and the “activity change, negative = inhibition” value was “inactive”. For `O=C(c1ccc(F)cc1)N1CCN(c2ccccn2)CC1`, the “activity change, negative = inhibition” value was “inactive”. `N#Cc1ccc(N2CCN(C(=O)c3ccc(Cl)cc3)CC2)nc1` was tested, and the “activity change, negative = inhibition” value was “inactive”. In the case of `CC(C)C(=O)N1CCN(c2ccccn2)CC1`, the “activity change, negative = inhibition” value is reported as “inactive”. With `O=C(c1ccccc1Cl)N1CCN(c2ccccn2)CC1` the “activity change, negative = inhibition” value was “inactive”. In the case of `O=C(c1cccc(Cl)c1)N1CCN(c2ccccn2)CC1`, the “activity change, negative = inhibition” value is reported as “inactive”. For `COc1cc(C(=O)N2CCN(c3ccccc3)CC2)cc(OC)c1OC`, the “activity change, negative = inhibition” value was “inactive”. For `N#Cc1ccc(C(=O)N2CCN(c3ccccn3)CC2)cc1`, the “activity change, negative = inhibition” value was “inactive”. For `COc1cccc(C(=O)N2CCN(c3ccccn3)CC2)c1`, the “activity change, negative = inhibition” value was “inactive”. For `COc1cccnc1N1CCN(C(=O)c2ccc(Cl)cc2)CC1`, the “activity change, negative = inhibition” value was “inactive”. `CCCCC(=O)N1CCN(c2ccccn2)CC1` was tested, and the “activity change, negative = inhibition” value was “inactive”. With `CCCn1c(NC(=O)c2ccc(Cl)c(S(=O)(=O)N3CCCC3)c2)nc2ccccc21` the “activity change, negative = inhibition” value was “inactive”. With `Cc1ccc(C(=O)N2CCN(c3ccccn3)CC2)cc1` the “activity change, negative = inhibition” value was “inactive”. `CCCn1c(NC(=O)c2ccc(OC)c(S(=O)(=O)N3CCCC3)c2)nc2ccccc21` was tested, and the “activity change, negative = inhibition” value was “inactive”. For `O=C(c1ccc(Cl)cc1)N1CCN(c2cccc(C(F)(F)F)n2)CC1`, the “activity change, negative = inhibition” value was “inactive”. `O=C(c1ccc(Cl)cc1)N1CCN(c2ccc(C(F)(F)F)cn2)CC1` was tested, and the “activity change, negative = inhibition” value was “inactive”. With `O=C(c1ccc(Cl)cc1)N1CCN(c2ccccn2)CC1` the “activity change, negative = inhibition” value was “inactive”. For `COc1ccnc(N2CCN(C(=O)c3ccc(Cl)cc3)CC2)c1`, the “activity change, negative = inhibition” value was “inactive”. `COc1ccc(C(=O)N2CCN(c3ccccn3)CC2)cc1` was tested, and the “activity change, negative = inhibition” value was “inactive”. `COCCC(=O)N1CCN(c2ccccn2)CC1` was tested, and the “activity change, negative = inhibition” value was “inactive”. For `O=C(c1ccc(Cl)cc1)N1CCN(c2ncccc2C(F)(F)F)CC1`, the “activity change, negative = inhibition” value was “inactive”. With `CCOc1cc(C(=O)N2CCN(c3ccccn3)CC2)cc(OCC)c1OCC` the “activity change, negative = inhibition” value was “inactive”. `Cc1ccc(N2CCN(C(=O)c3ccc(Cl)cc3)CC2)nc1` was tested, and the “activity change, negative = inhibition” value was “inactive”. With `COc1cc(C(=O)N2CCN(c3ccccn3)CC2)cc(OC)c1OC` the “activity change, negative = inhibition” value was “inactive”.
